Experimental data as given in publication PMC7571217, “Adenosine Receptor Ligands: Coumarin–Chalcone Hybrids as Modulating Agents on the Activity of hARs” (Molecules, 2020).

How the values were obtained:
hA3 [1] = target: T1, hA3 (Homo sapiens, UniProt P0DMS8); assay: Radioligand competition binding, [3H]HEMADO, hA3 in CHO cells; details: [3H]HEMADO 1 nM, geometric mean of 3 experiments (95% CI)
T1 construct: expressed in transfected cells; host or cells: CHO cells (stably transfected)
T1 sequence (P0DMS8 1-318): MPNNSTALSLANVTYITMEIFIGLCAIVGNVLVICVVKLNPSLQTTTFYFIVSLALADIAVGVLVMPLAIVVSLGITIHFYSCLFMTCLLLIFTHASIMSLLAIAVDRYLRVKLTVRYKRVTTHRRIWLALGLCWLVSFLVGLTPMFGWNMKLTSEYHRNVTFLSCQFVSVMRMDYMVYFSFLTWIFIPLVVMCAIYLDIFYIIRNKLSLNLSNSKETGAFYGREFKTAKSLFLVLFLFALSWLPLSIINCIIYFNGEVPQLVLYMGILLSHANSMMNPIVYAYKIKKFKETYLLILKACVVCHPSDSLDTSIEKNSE
Procedure: (§1) (5′-N-ethylcarboxamidoadenosine) to hA2A; and specific binding of [^3H]HEMADO (2-(1-hexynyl)-N^6-methyladenosine) to hA3. […] Due to the lack of a suitable radioligand for the hA2B receptor, the potency of antagonists at the hA2B receptor was determined by inhibition of NECA-stimulated adenylyl cyclase activity with increasing concentrations of antagonist.
(§2) The binding affinity for hA1, hA2A, hA3 of the synthetized compounds was evaluated using radioligand competition experiments in CHO cells that were stably transfected with the individual receptor subtypes. […] Due to the lack of a suitable radioligand for the hA2B receptor, the potency of antagonists at the hA2B receptor (expressed on CHO cells) was determined by inhibition of NECA-stimulated adenylyl cyclase activity. The IC50 for inhibition of cAMP (cyclic adenosine monophosphate) production was determined and converted to Ki values using the Cheng and Prusoff equation [56].
(§3) Ki values (dissociation constants) were determined in radioligand competition experiments with 7–8 different concentrations of test compound and each concentration was tested in duplicate. […] The program Prism 6 (GraphPad Software) was used for the analysis of the competition curves.

hA1 = hA1 (Homo sapiens, UniProt P30542); assay: biochemical
Procedure: as §1, §2, §3

hA2A = target: T2, hA2A (Homo sapiens, UniProt P29274); assay: Radioligand competition binding, [3H]NECA, hA2A in CHO cells; details: [3H]NECA 10 nM
T2 construct: expressed in transfected cells; host or cells: CHO cells (stably transfected)
Procedure: as §1, §2, §3

hA3 [2] = target: T1, hA3; details: radioligand used at 1 nM; ref [44],[45]; cited from earlier work

Chain of hA1 (P30542 whole entry): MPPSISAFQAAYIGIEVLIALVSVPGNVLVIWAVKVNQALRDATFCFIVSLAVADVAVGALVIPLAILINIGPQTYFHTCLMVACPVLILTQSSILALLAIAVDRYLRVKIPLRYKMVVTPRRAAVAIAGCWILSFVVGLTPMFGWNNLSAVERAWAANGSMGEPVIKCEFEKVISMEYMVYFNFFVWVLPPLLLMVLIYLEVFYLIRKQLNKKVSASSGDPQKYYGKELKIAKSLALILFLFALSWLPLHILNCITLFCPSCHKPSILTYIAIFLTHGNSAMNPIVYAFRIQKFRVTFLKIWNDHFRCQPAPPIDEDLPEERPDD
T2 sequence (P29274 whole entry): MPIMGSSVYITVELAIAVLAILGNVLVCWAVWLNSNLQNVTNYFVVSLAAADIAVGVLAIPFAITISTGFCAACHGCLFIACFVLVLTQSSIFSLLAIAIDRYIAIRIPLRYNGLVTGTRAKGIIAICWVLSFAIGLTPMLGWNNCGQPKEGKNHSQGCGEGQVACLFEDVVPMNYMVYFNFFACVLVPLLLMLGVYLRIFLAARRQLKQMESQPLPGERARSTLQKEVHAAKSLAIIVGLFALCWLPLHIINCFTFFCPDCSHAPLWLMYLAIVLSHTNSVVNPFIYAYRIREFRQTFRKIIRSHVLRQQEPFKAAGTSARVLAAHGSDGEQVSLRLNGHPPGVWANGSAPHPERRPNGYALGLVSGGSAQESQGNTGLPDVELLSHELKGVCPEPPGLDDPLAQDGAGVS

Row | Compound | Ki (hA3 [1]) | melting point | Ki (hA1) | Ki (hA2A) | Kd (hA3 [2])
1 | COc1ccc(C(=O)c2cc3ccccc3oc2=O)cc1OC [Compound 1, 3-(3′,4′-Dimethoxybenzoyl)coumarin] | > 100 µM | 190 to 191 °C | > 100 µM | > 100 µM | 
2 | COc1ccc2oc(=O)c(C(=O)c3ccc(OC)c(OC)c3)cc2c1 [Compound 2, 6-Methoxy-3-(3′,4′-dimethoxybenzoyl)coumarin] | > 100 µM | 202 to 203 °C | > 100 µM | > 100 µM | 
3 | COc1cc(OC)c2cc(C(=O)c3ccc(OC)c(OC)c3)c(=O)oc2c1 [Compound 3, 5,7-Dimethoxy-3-(3′,4′-dimethoxybenzoyl)coumarin] | 9.03 µM | 210 to 211 °C | > 30 µM |  | 
4 | COc1ccc(C(=O)c2cc3c(OC)cc(OC)cc3oc2=O)cc1 [Compound 4, 5,7-Dimethoxy-3-(4′-methoxybenzoyl)coumarin] | 2.49 µM | 174 to 175 °C | > 100 µM |  | 
5 | O=C(c1ccc(O)c(O)c1)c1cc2ccccc2oc1=O [Compound 5] | 34.5 µM |  | 39.5 µM |  | 
6 | O=C(c1ccc(O)c(O)c1)c1cc2cc(O)ccc2oc1=O [Compound 6] | > 60 µM |  | 54 µM |  | 
7 | O=C(c1ccc(O)c(O)c1)c1cc2c(O)cc(O)cc2oc1=O [Compound 7] | > 30 µM |  | 17.7 µM |  | 
8 | O=C(c1ccc(O)cc1)c1cc2c(O)cc(O)cc2oc1=O [Compound 8, 5,7-Dihydroxy-3-(4′-hydroxybenzoyl)coumarin] | > 60 µM | 290 to 292 °C | 29.1 µM |  | 
9 | CCCCC#Cc1nc(NC)c2ncn([C@@H]3O[C@H](CO)[C@@H](O)[C@H]3O)c2n1 [[^3H]HEMADO, 2-(1-hexynyl)-N^6-methyladenosine] |  |  |  |  | 0.0012 µM
